“And” between values parts separate entries of the source, which are not always exact repeats. Equal values may be shown once. The source made the active and inactive calls. The rule behind the calls is not given here.
Key:
[1] = tested on: Tyrosine-protein kinase ABL1 (Homo sapiens), P00519 [UNDEFINED MUTATION]; assay: Inhibition of phosphorylated human ABL1 […] mutant assessed as percent of control at 2000 nM by KINOMEscan assay relative to control; design: scale not given: the % may be the effect or the level left
[2] = biological target: RAC-alpha serine/threonine-protein kinase (Homo sapiens) (UniProt P31749); assay: Inhibition of human AKT1 assessed as percent of control at 2000 nM by KINOMEscan assay relative to control; design: scale not given: the % may be the effect or the level left
[3] = biological target: Aurora kinase B (Homo sapiens) (UniProt Q96GD4); assay: Inhibition of human AURKB assessed as percent of control at 2000 nM by KINOMEscan assay relative to control; design: scale not given: the % may be the effect or the level left
Aurora kinase B (Homo sapiens), sequence (Q96GD4 whole entry): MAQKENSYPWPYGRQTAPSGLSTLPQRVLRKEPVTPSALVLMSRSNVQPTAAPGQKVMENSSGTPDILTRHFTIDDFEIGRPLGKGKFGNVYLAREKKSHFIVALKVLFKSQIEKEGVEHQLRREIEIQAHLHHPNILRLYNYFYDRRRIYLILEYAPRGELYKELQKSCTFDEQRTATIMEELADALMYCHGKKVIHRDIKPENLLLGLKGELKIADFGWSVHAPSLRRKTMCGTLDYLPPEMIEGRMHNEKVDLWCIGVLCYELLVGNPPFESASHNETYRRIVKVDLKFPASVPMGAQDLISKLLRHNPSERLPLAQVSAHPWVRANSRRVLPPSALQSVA

[4] = biological target: Bone morphogenetic protein receptor type-1A (Homo sapiens) (UniProt P36894); assay: Inhibition of human BMPR1A assessed as percent of control at 2000 nM by KINOMEscan assay relative to control; design: scale not given: the % may be the effect or the level left
Bone morphogenetic protein receptor type-1A (Homo sapiens), sequence (P36894 whole entry): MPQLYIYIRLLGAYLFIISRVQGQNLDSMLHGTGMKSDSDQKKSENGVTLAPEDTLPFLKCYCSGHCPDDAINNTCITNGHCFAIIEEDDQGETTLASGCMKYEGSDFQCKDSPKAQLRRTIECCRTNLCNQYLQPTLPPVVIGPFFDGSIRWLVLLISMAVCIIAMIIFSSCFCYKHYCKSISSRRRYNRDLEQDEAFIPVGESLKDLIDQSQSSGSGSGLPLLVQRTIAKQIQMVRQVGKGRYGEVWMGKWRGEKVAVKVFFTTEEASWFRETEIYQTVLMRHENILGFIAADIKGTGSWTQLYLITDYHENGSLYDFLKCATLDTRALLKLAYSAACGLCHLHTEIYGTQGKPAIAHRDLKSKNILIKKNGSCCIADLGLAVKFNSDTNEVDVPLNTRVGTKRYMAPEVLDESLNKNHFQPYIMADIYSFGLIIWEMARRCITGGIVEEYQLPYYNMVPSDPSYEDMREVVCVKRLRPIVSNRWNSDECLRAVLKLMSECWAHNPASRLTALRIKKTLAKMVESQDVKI

[5] = biological target: Calcium/calmodulin-dependent protein kinase type 1 (Homo sapiens) (UniProt Q14012); assay: Inhibition of human CAMK1 assessed as percent of control at 2000 nM by KINOMEscan assay relative to control; design: scale not given: the % may be the effect or the level left
[6] = biological target: Calcium/calmodulin-dependent protein kinase type IV (Homo sapiens) (UniProt Q16566); assay: Inhibition of human CAMK4 assessed as percent of control at 2000 nM by KINOMEscan assay relative to control; design: scale not given: the % may be the effect or the level left
[7] = biological target: Calcium/calmodulin-dependent protein kinase kinase 2 (Homo sapiens) (UniProt Q96RR4); assay: Inhibition of human CAMKK2 assessed as percent of control at 2000 nM by KINOMEscan assay relative to control; design: scale not given: the % may be the effect or the level left
Calcium/calmodulin-dependent protein kinase kinase 2 (Homo sapiens), sequence (Q96RR4 2-588 limits assumed): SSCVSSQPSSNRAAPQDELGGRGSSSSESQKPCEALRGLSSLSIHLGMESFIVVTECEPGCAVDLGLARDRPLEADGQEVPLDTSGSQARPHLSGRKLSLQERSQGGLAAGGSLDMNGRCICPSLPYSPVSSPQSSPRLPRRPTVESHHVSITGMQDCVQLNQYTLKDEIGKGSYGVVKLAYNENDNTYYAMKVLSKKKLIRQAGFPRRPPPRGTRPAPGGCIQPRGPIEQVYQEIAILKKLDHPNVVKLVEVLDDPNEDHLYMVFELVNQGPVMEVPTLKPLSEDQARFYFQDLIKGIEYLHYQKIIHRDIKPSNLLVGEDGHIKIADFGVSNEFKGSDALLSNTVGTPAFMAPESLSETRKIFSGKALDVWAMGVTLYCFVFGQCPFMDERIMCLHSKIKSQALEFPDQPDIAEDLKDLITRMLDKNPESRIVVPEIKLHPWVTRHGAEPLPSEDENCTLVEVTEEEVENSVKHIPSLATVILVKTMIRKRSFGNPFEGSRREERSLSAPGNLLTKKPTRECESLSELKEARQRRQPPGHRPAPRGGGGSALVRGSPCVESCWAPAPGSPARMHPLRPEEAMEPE

[8] = biological target: CDK4/Cyclin D3 (Homo sapiens) (UniProt P11802+P30281); assay: Inhibition of human CDK4/cyclin D3 assessed as percent of control at 2000 nM by KINOMEscan assay relative to control; format: protein-complex assay; design: scale not given: the % may be the effect or the level left
[9] = biological target: Macrophage colony-stimulating factor 1 receptor (Homo sapiens) (UniProt P07333); assay: Inhibition of human CSF1R assessed as percent of control at 2000 nM by KINOMEscan assay relative to control; design: scale not given: the % may be the effect or the level left
[10] = biological target: Epithelial discoidin domain-containing receptor 1 (Homo sapiens) (UniProt Q08345); assay: Inhibition of human DDR1 assessed as percent of control at 2000 nM by KINOMEscan assay relative to control; design: scale not given: the % may be the effect or the level left
[11] = tested on: Epidermal growth factor receptor (Homo sapiens), P00533 [G719S]; assay: Inhibition of human EGFR G719S assessed as percent of control at 2000 nM by KINOMEscan assay relative to control; design: scale not given: the % may be the effect or the level left
[12] = biological target: Ephrin type-A receptor 2 (Homo sapiens) (UniProt P29317); assay: Inhibition of human EPHA2 assessed as percent of control at 2000 nM by KINOMEscan assay relative to control; design: scale not given: the % may be the effect or the level left
[13] = biological target: Tyrosine-protein kinase JAK1 (Homo sapiens) (UniProt P23458); assay: Inhibition of human JAK1 JH2 pseudokinase domain assessed as percent of control at 2000 nM by KINOMEscan assay relative to control; design: scale not given: the % may be the effect or the level left
[14] = tested on: Mast/stem cell growth factor receptor Kit (Homo sapiens), P10721 [L576P]; assay: Inhibition of human KIT L576P mutant assessed as percent of control at 2000 nM by KINOMEscan assay relative to control; design: scale not given: the % may be the effect or the level left
[15] = biological target: LIM domain kinase 2 (Homo sapiens) (UniProt P53671); assay: Inhibition of human LIMK2 assessed as percent of control at 2000 nM by KINOMEscan assay relative to control; design: scale not given: the % may be the effect or the level left
[16] = biological target: Dual specificity mitogen-activated protein kinase kinase 1 (Homo sapiens) (UniProt Q02750); assay: Inhibition of human MEK1 assessed as percent of control at 2000 nM by KINOMEscan assay relative to control; design: scale not given: the % may be the effect or the level left
[17] = biological target: Dual specificity mitogen-activated protein kinase kinase 2 (Homo sapiens) (UniProt P36507); assay: Inhibition of human MEK2 assessed as percent of control at 2000 nM by KINOMEscan assay relative to control; design: scale not given: the % may be the effect or the level left
[18] = biological target: Cyclin-dependent kinase 18 (Homo sapiens) (UniProt Q07002); assay: Inhibition of human PCTK3 assessed as percent of control at 2000 nM by KINOMEscan assay relative to control; design: scale not given: the % may be the effect or the level left
Cyclin-dependent kinase 18 (Homo sapiens), sequence (Q07002 whole entry, canonical isoform): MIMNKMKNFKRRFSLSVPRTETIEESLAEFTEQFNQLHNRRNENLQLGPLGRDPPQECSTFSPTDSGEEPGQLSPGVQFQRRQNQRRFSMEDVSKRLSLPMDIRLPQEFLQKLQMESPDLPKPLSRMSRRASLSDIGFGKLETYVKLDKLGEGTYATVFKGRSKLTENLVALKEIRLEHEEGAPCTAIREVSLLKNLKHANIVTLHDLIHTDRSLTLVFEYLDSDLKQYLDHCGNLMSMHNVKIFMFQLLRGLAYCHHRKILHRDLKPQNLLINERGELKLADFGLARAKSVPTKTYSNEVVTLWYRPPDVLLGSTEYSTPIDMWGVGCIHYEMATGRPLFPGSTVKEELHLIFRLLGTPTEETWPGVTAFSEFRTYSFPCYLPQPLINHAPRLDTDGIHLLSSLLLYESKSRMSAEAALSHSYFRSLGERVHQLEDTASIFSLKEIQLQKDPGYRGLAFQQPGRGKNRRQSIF

[19] = tested on: Phosphatidylinositol 4,5-bisphosphate 3-kinase catalytic subunit alpha isoform (Homo sapiens), P42336 [H1047Y]; assay: Inhibition of human PIK3CA H1047Y mutant assessed as percent of control at 2000 nM by KINOMEscan assay relative to control; design: scale not given: the % may be the effect or the level left
[20] = biological target: Serine/threonine-protein kinase N1 (Homo sapiens) (UniProt Q16512); assay: Inhibition of human PKN1 assessed as percent of control at 2000 nM by KINOMEscan assay relative to control; design: scale not given: the % may be the effect or the level left
Serine/threonine-protein kinase N1 (Homo sapiens), sequence (Q16512 2-942 limits assumed): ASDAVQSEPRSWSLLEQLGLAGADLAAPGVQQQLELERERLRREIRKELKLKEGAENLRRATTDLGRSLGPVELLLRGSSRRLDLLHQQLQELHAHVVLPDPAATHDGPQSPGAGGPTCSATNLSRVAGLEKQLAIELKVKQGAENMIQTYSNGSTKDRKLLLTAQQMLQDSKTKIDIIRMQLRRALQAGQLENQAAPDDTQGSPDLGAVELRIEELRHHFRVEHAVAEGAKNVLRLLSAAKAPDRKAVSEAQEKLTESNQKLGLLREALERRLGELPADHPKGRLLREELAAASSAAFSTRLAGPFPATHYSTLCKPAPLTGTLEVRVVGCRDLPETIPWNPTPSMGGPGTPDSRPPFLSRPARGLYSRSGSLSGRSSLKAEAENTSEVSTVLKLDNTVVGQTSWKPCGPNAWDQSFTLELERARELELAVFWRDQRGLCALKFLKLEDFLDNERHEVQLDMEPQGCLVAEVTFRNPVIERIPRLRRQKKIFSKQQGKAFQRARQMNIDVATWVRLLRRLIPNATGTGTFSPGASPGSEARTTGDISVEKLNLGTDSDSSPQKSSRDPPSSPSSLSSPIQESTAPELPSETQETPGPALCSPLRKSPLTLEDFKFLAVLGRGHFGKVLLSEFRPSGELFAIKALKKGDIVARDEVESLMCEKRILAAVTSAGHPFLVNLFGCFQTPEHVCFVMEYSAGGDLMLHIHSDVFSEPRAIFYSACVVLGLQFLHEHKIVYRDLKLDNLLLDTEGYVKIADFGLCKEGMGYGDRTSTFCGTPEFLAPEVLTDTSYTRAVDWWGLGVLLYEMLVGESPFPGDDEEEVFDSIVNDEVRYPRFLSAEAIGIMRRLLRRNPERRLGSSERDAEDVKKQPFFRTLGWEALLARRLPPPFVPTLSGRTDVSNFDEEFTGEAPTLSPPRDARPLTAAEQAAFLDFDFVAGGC

[21] = biological target: Serine/threonine-protein kinase PLK3 (Homo sapiens) (UniProt Q9H4B4); assay: Inhibition of human PLK3 assessed as percent of control at 2000 nM by KINOMEscan assay relative to control; design: scale not given: the % may be the effect or the level left
[22] = biological target: Serine/threonine-protein kinase RIO3 (Homo sapiens) (UniProt O14730); assay: Inhibition of human RIOK3 assessed as percent of control at 2000 nM by KINOMEscan assay relative to control; design: scale not given: the % may be the effect or the level left
Serine/threonine-protein kinase RIO3 (Homo sapiens), sequence (O14730 whole entry): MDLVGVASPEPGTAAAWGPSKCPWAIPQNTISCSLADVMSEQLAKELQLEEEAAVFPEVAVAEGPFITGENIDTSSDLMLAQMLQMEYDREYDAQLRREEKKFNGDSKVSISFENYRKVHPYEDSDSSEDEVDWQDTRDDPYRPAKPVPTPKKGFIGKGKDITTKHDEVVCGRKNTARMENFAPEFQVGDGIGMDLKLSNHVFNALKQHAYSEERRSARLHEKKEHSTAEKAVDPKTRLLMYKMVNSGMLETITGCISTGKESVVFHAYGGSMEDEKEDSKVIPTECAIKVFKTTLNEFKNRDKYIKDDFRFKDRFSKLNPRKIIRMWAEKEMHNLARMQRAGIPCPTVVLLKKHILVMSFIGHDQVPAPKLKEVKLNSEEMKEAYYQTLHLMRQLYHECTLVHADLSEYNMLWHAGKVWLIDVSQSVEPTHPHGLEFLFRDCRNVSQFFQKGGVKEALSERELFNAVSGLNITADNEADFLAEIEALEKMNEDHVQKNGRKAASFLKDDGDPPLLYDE

[23] = biological target: Rho-associated protein kinase 1 (Homo sapiens) (UniProt Q13464); assay: Inhibition of human ROCK1 assessed as percent of control at 2000 nM by KINOMEscan assay relative to control; design: scale not given: the % may be the effect or the level left
[24] = biological target: Ribosomal protein S6 kinase alpha-5 (Homo sapiens) (UniProt O75582); assay: Inhibition of human N-terminal RPS6KA5 kinase domain 1 assessed as percent of control at 2000 nM by KINOMEscan assay relative to control; design: scale not given: the % may be the effect or the level left
[25] = biological target: Ribosomal protein S6 kinase alpha-1 (Homo sapiens) (UniProt Q15418); assay: Inhibition of human C-terminal RSK1 kinase domain 2 assessed as percent of control at 2000 nM by KINOMEscan assay relative to control; design: scale not given: the % may be the effect or the level left
[26] = biological target: Tyrosine-protein kinase SYK (Homo sapiens) (UniProt P43405); assay: Inhibition of human SYK assessed as percent of control at 2000 nM by KINOMEscan assay relative to control; design: scale not given: the % may be the effect or the level left
[27] = biological target: High affinity nerve growth factor receptor (Homo sapiens) (UniProt P04629); assay: Inhibition of human TRKA assessed as percent of control at 2000 nM by KINOMEscan assay relative to control; design: scale not given: the % may be the effect or the level left
High affinity nerve growth factor receptor (Homo sapiens), sequence (P04629 33-796 limits assumed): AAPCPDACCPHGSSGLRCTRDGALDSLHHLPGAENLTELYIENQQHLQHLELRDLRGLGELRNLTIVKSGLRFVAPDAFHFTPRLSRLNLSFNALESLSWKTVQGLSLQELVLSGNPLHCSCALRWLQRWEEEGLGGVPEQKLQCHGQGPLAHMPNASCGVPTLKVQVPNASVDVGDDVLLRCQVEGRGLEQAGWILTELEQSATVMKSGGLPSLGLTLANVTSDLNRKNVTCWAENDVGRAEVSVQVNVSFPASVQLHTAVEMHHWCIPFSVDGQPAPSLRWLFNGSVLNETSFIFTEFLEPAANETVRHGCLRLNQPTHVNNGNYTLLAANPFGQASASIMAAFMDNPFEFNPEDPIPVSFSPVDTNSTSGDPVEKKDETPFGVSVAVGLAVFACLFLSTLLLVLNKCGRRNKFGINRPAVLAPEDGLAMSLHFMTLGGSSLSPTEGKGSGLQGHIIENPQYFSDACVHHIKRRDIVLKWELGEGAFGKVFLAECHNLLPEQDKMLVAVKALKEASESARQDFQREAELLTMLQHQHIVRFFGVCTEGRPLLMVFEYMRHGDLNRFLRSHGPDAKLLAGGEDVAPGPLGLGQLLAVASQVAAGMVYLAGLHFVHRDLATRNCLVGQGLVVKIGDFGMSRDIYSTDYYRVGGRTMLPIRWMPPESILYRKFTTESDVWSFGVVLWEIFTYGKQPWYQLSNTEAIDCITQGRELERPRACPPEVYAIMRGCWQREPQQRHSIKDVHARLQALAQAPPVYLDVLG

[28] = biological target: NT-3 growth factor receptor (Homo sapiens) (UniProt Q16288); assay: Inhibition of human TRKC assessed as percent of control at 2000 nM by KINOMEscan assay relative to control; design: scale not given: the % may be the effect or the level left
NT-3 growth factor receptor (Homo sapiens), sequence (Q16288 32-839 limits assumed): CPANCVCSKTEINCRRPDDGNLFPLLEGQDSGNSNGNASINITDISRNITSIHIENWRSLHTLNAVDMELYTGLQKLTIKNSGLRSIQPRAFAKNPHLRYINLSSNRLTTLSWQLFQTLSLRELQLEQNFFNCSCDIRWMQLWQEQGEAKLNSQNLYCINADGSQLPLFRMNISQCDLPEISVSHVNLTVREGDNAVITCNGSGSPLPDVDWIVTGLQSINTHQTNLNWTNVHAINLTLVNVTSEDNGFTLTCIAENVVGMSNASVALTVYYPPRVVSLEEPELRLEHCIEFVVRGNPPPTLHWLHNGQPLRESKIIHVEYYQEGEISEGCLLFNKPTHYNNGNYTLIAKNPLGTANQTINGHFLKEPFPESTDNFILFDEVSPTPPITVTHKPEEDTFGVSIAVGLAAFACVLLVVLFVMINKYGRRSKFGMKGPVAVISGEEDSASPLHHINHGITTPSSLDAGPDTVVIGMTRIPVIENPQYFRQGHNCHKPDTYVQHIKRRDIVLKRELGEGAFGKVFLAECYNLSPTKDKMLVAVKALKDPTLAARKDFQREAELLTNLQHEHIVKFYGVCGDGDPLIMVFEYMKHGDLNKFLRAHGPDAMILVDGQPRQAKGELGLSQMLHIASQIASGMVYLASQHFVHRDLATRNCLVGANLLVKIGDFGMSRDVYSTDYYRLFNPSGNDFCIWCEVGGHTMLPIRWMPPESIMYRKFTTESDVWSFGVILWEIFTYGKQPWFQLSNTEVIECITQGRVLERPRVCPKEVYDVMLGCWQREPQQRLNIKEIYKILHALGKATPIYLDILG

[29] = biological target: Vascular endothelial growth factor receptor 2 (Homo sapiens) (UniProt P35968); assay: Inhibition of human VEGFR2 assessed as percent of control at 2000 nM by KINOMEscan assay relative to control; design: scale not given: the % may be the effect or the level left
[30] = biological target: Phosphatidylinositol 3-kinase catalytic subunit type 3 (Homo sapiens) (UniProt Q8NEB9); assay: Inhibition of human VPS34 assessed as percent of control at 2000 nM by KINOMEscan assay relative to control; design: scale not given: the % may be the effect or the level left
Myc-CaP = assay: Antitumor activity against murine castration-resistant Myc-CaP cells xenografted in male FVB mouse assessed as suppression of tumor weight; format: functional

Q: For `CN(C)C(=O)c1ccc(N2CCCN(c3ccnc4sc(C(N)=O)c(N)c34)CC2)cc1`, which Activity [1] is on record?
A: Its Activity is 94% and 77%.

Q: And the Activity [2]?
A: Its Activity is 100%.

Q: What about the Activity [3] of the same compound?
A: Its Activity is 91% and 90%.

Q: What about the Activity [4] of the same compound?
A: Its Activity is 100%.

Q: And the Activity [5]?
A: Its Activity is 83% and 95%.

Q: And the Activity [6]?
A: Its Activity is 96% and 79%.

Q: And the Activity [7]?
A: Its Activity is 100% and 87%.

Q: What about the Activity [8] of the same compound?
A: The Activity was 95% and 97%.

Q: What about the Activity [9] of the same compound?
A: Its Activity is 98% and 95%.

Q: And the Activity [10]?
A: The Activity was 82% and 90%.

Q: And the Activity [11]?
A: The Activity was 100%.

Q: And the Activity [12]?
A: The Activity was 95% and 100%.

Q: What about the Activity [13] of the same compound?
A: Its Activity is 89%.

Q: What about the Activity [14] of the same compound?
A: The Activity was 96% and 75%.

Q: And the Activity [15]?
A: Its Activity is 91% and 98%.

Q: What about the Activity [16] of the same compound?
A: The Activity was 93% and 83%.

Q: And the Activity [17]?
A: The Activity was 88% and 82%.

Q: And the Activity [18]?
A: Its Activity is 100%.

Q: And the Activity [19]?
A: Its Activity is 79% and 100%.

Q: And the Activity [20]?
A: The Activity was 96% and 100%.

Q: And the Activity [21]?
A: Its Activity is 86% and 90%.

Q: And the Activity [22]?
A: The Activity was 100% and 95%.

Q: What about the Activity [23] of the same compound?
A: The Activity was 77% and 67%.

Q: And the Activity [24]?
A: Its Activity is 75% and 100%.

Q: And the Activity [25]?
A: Its Activity is 100% and 86%.

Q: And the Activity [26]?
A: The Activity was 95% and 100%.

Q: What about the Activity [27] of the same compound?
A: The Activity was 93% and 78%.

Q: What about the Activity [28] of the same compound?
A: Its Activity is 91% and 85%.

Q: What about the Activity [29] of the same compound?
A: Its Activity is 67% and 84%.

Q: What about the Activity [30] of the same compound?
A: The Activity was 85% and 65%.

Q: And the Activity (Myc-CaP)?
A: Its Activity is “Active”.

Reference: ChEMBL document CHEMBL4804286, “3-amino-4-(4-(4 (dimethylcarbamoyl) phenyl)-1,4-diazepan-1-yl) thieno [2,3-b] pyridine-2-carboxamide for use in cancer therapy and formulations comprising the same” (2020)
